Common to all, as to format: cell-based, human
Assay [1] deals with H630R10 cells. The experiment in a line: 384-well alamarBlue interaction screening assay with NB1011. As to conditions: drug combined with NB1011, 5-day incubation, average of at least 4 consecutive dose/effect levels. On the procedure:
(§1) Normal human colon epithelial cells (CCD18co) and skin fibroblasts (Det551) were purchased from ATCC (Rockville, Md.). MCF7TDX, human breast carcinoma cells resistant to 2 μM Tomudex were obtained from Dr. Patrick Johnston, Queens University, Belfast. […] The MCF7TDX and the H630R10 cell lines have been previously described in Drake, J. C. et al., 1996 and Copur, S. et al., 1995, respectively.
(§2) All cells were cultured under standard conditions of 37° C., 95% humidified air, 5% CO2 in RPMI 1640 culture medium containing 10% fetal calf serum (Life Technologies) and penicillin/streptomycin/fungizone. MCF7TDX cells were maintained continuously in 2 μM Tomudex, and H630R10 cells were maintained continuously in 10 μM 5-FU. The medium was renewed or the cells were passaged about every three days to maintain optimal growth conditions. Normal cells were passaged a maximum of 15 times to avoid senescence.
(§3) 500 cells per well were transferred to a 384-well tissue culture plate (Corning Inc., Corning, N.Y.) and allowed to attach for 24 hours in standard culture conditions. Compounds were then applied in a bidirectional (checker board) pattern (Chou, T. C. and Talalay, P. 1984). Following a 5-day incubation, the redox indicator dye, alamarBlue (AccuMed International, Westlake, Ohio) was added to each well at a 10% v/v ratio, and fluorescence was monitored at 535 excitation, 595 emission. Cytotoxic effect levels and drug interactions were assessed by the combination index method (Chou, T. C. and Talalay, P. 1984 and Bible, K. C. et al. 1997), described briefly below.
(§4) Only experiments with linear correlation coefficients (r)>0.9 were accepted for analysis. A combination index (CI) was then calculated to assess synergism or antagonism according to the following equation which assumes an independent mechanism of drug action (mutual exclusivity):
(§5) CI=(D)1/(Dx)1+(D)2/(Dx)2+(D)1(D)2/(Dx)1(Dx)2 [Equation 2]
(§6) where (D)1 and (D)2 are the concentrations of drug 1 and drug 2 which combined produce x% inhibition, and (Dx)1 and(Dx)2 are the concentrations of each drug which alone produce x% inhibition. CI=1 indicates an additive interaction, CI<1 indicates synergy, and CI>1 indicates antagonism. For each experiment CI's from several different effect levels and concentrations of a constant molar ratio were averaged.
(§7) In general, a combination index of <1 indicates synergy, ˜1 indicates additivity, and >1 indicates antagonism (Pegram, M. D. et al. (1999)).

The subject of assay [2] is CCD18co normal colon epithelial cells. Nature of the assay: 96-well crystal violet combination cytotoxicity assay with NB1011. To be noted: for Interaction: interaction with NB1011, CCD18co; for Average combination index (CI): drug combined with NB1011 at constant molar ratio, CCD18co normal cells, 96-well crystal violet, 72 hour incubation. The protocol:
as §1, §2
(§8) Exponentially rowing cells were transferred at a density of 1.0−5.5×10^3 cells per well to a 96-well tissue culture plate and allowed to attach for 24 hours. Compounds were then applied in duplicate half log serial dilutions. Each compound was tested separately, and mixed together at a single molar ratio approximately equal to the ratio of the individual IC50 values. After an additional 72 hour incubation, cells were washed once with PBS and stained with 0.5% crystal violet in methanol. Plates were washed gently in water to remove unbound stain and allowed to dry overnight. Crystal violet stain bound to the total protein of attached cells was redissolved in Sorenson's buffer (0.025 M sodium citrate, 0.025 M citric acid in 50% ethanol), and absorbance monitored at 535 nm. Sigmoid curves were fit according to the Hill inhibitory Emax model, and IC50 calculated as the average of three or more separate determinations. Where applicable, the combination index for multiple drug effects was calculated according to the median-effect principle (Chou, T. C. and Talalay, P. 1984) using the CalcuSyn software from Biosoft (Ferguson, Mo.). Briefly, the IC50 and the slope parameter (m) for each agent alone were determined from the median effect plot, an x,y plot of log(D) vs log (fa/fu) based on Chou's median effect equation:
(§9) fa/fu=(D/Dm)^m [Equation 1]
as §4, §5, §6
(§10) The 96-well format was chosen for more detailed drug interaction studies. […] To analyze whether any of these drugs would enhance the activity of NB1011 specifically in tumor cells, two normal cell types, Det551 and CCD18co, were included in the assays.

In assay [3] the test system is Det551 normal skin fibroblasts. The description is as above. As to conditions: for Interaction: interaction with NB1011, Det551; for Average combination index (CI): drug combined with NB1011 at constant molar ratio, Det551 normal cells, 96-well crystal violet, 72 hour incubation. On the procedure:
as §1, §2, §8, §9, §4, §5, §6, §10

The subject of assay [4] is H630R10 cells. Described as above. To be noted: for Interaction: interaction with NB1011; for Average combination index (CI): drug combined with NB1011 at constant molar ratio, 96-well crystal violet, 72 hour incubation. On the procedure:
as §1, §2, §8, §9, §4, §5, §6, §10

Assay [5] has as its system MCF7TDX cells. Described as above. As to conditions: for Interaction: interaction with NB1011; for Average combination index (CI): drug combined with NB1011 at constant molar ratio, 96-well crystal violet, 72 hour incubation. On the procedure:
as §1, §2, §8, §9, §4, §5, §6, §10

Assay [6] has as its system MCF7TDX cells. Nature of the assay: 384-well alamarBlue interaction screening assay with NB1011. To be noted: drug combined with NB1011, 5-day incubation, average of at least 4 consecutive dose/effect levels. The protocol:
as §1, §2, §3, §4, §5, §6, §7

As for `CC[C@]1(O)C[C@@H]2CN(CCc3c([nH]c4ccccc34)[C@@](C(=O)OC)(c3cc4c(cc3OC)N(C)[C@H]3[C@@](O)(C(=O)OC)[C@H](OC(C)=O)[C@]5(CC)C=CCN6CC[C@]43[C@@H]65)C2)C1` [Vinblastine], the “Combination Index ± s.e.m.” value in assay [1] was determined as 0.78 ± 0.32. The Interaction entry in assay [2] is “Syn”; in assay [3], “Syn”; in assay [4], “Syn”; in assay [5], “Ant”.

As for `N.N.[Cl][Pt][Cl]` [Cisplatin], in assay [6], the “Combination Index ± s.e.m.” value turned out to be 1.51 ± 0.35.

Take `O=C1[O][Pt]2([NH][C@@H]3CCCC[C@H]3[NH]2)[O]C1=O` [Oxaliplatin]: the Interaction result in assay [4] and in assay [5] was “Ant” each time.

Regarding `OCCN(CCO)c1nc(N2CCCCC2)c2nc(N(CCO)CCO)nc(N3CCCCC3)c2n1` [Dipyridamole, dipyridamole], the “Average combination index (CI)” value in assay [2] is 1.30; in assay [3], 1.17; in assay [4], 0.75; in assay [5] it was 0.51. Besides, the Interaction entry in assay [2] is reported as “Ant”; in assay [3], “Add”; in assay [4] it was “Syn”; in assay [5], “Syn”.

Take `CCc1c2c(nc3ccc(OC(=O)N4CCC(N5CCCCC5)CC4)cc13)-c1cc3c(c(=O)n1C2)COC(=O)[C@]3(O)CC` [Irinotecan]: in assay [1], the “Combination Index ± s.e.m.” value is recorded as 1.26 ± 0.20.

Regarding `O=[N+]([O-])c1ccc(CSc2ncnc3c2ncn3C2OC(CO)C(O)C2O)cc1` (stereo not shown) [NBMPR, p-nitrobenzylthioinosine], the “Average combination index (CI)” value in assay [2] came out at 3.93; in assay [3] it was 1.43; in assay [4] it was 0.35; in assay [5] it was 0.57. Moreover, the Interaction result in assay [2] was “Ant”; in assay [3], “Ant”; in assay [4] it was “Syn”; in assay [5] it was “Syn”.

With `CC(=O)O[C@H]1C(=O)[C@@]2(C)[C@H]([C@H](OC(=O)c3ccccc3)[C@]3(O)C[C@H](OC(=O)[C@H](O)[C@@H](NC(=O)c4ccccc4)c4ccccc4)C(C)=C1C3(C)C)[C@]1(OC(C)=O)CO[C@@H]1C[C@@H]2O` [Taxol], the “Combination Index ± s.e.m.” value in assay [1] was 0.99 ± 0.15.

Regarding `COc1cccc2c1C(=O)c1c(O)c3c(c(O)c1C2=O)C[C@@](O)(C(=O)CO)C[C@@H]3O[C@H]1C[C@H](N)[C@H](O)[C@H](C)O1` [Doxorubicin], the Interaction result in assay [4] and in assay [5] was “Ant” in each case.

For the origin of these results see patent US20020147175A1, “Synergistic ECTA compositions” (priority 2000, published 2002).
